Measured values as given in patent publication US8987243B2, “11-(2-pyrrolidin-1-yl-ethoxy)-14,19-dioxa-5,7,26-triaza-tetracyclo[19.3.1.1(2,6).1(8,12)]heptacosa-maleate salt” (CTI Biopharma Corp., priority 2008, dated 2015).
Counter-ions that a name gives are not always drawn. Values belong to the compound of their own block, whether it stands above or below them.

Columns and labels:
Assay type in all cases: physicochemical
[1] = Thermal gravimetric analysis (TGA); conditions: for water lost in the first phase of the TGA: hydrochloride
Method: The samples of both hydrochloride (comparative) and maleate salts were subjected to thermal gravimetric analysis and differential scanning calorimetry under the following conditions. DSC data were collected on a TA Instruments Q2000 equipped with a 50 position auto-sampler. The instrument was calibrated for energy and temperature calibration using certified indium. Typically 0.5-3 mg of each sample, in a pin-holed aluminium pan, was heated at 10° C.·min^−1 from 25° C. to 270° C.
TGA data were collected on a TA Instruments Q500 TGA, equipped with a 16 position auto-sampler. The instrument was temperature calibrated using certified Alumel. Typically 5-30 mg of each sample was loaded onto a pre-tared platinum crucible and aluminium DSC pan, and was heated at 10° C.·min^−1 from ambient temperature to 300° C. A nitrogen purge at 60 ml·min^−1 was maintained over the sample. The instrument control software was Thermal Advantage v4.6.6 and the data were analysed using Universal Analysis v4.3A. Alternatively, TGA data were collected on a Mettler TGA/SDTA 851e equipped with a 34 position auto-sampler. The instrument was temperature calibrated using certified indium. Typically 5-30 mg of each sample was loaded onto a pre-weighed aluminium crucible and was heated at 10° C.·min^−1 from ambient temperature to 300° C. A nitrogen purge at 50 ml·min^−1 was maintained over the sample. The instrument control and data analysis software was STARe v9.01.

[2] = Variable temperature X-ray diffraction; conditions: variable temperature XRPD
Method: Samples run under non-ambient conditions were mounted on a silicon wafer with heat-conducting compound. The sample was then heated to the appropriate temperature at ca. 10° C.·min^−1 and subsequently held isothermally for ca 2 minutes before data collection was initiated. In order to probe the stability of the samples of the maleate salts variable temperature X-ray diffraction was carried out. Thus, the salts were scanned under X-ray diffraction conditions at a series of temperatures and the characteristic peaks determined.

[3] = Stress tests: storage at elevated temperature and humidity, analysed by XRPD
Method: The group three material was stressed under conditions which might cause it to convert to group one material or, indeed, another hydrated or polymorphic form. Thus samples were stored at 40° C./75% RH and also at 60° C./96% RH and analysed at regular intervals by XRPD.
The stability of the maleate salt form A material was tested in harsher conditions, when the samples were kept for a week in the humidity chamber at 60° C. and 96% RH.
The samples of both hydrochloride (comparative) and maleate salts were subjected to X-ray diffraction to determine the characteristic X-ray diffraction pattern. The conditions used were as follows: X-Ray Powder Diffraction patterns were collected on a Siemens D5000 diffractometer using Cu Kα radiation (40 kV, 40 mA), θ-θ goniometer, divergence of V20 and receiving slits, a graphite secondary monochromator and a scintillation counter. The instrument is performance checked using a certified Corundum standard (NIST 1976).

[4] = Maturation studies in 27 solvents, solids analysed by XRPD; conditions: 4 h heat/cool cycles 50° C./r.t., 24 h
Method: In order to determine the propensity of polymorphism for the maleate salt the material was maturated in 27 different solvents. A small amount of solid was slurried with the corresponding solvent (see Table 4 below) and stored in the incubator and subjected to 4 h-heat/cool cycles at 50° C./r.t. for 24 h. The solvents were then removed under vacuum, and the remaining solids analysed by XRPD.

[5] = Gravimetric Vapour Sorption (GVS), with XRPD post GVS; conditions: for solid form / crystalline pattern by XRPD post GVS: compared with starting material

SMILES: C1=CCOCc2cc(ccc2OCCN2CCCC2)Nc2nccc(n2)-c2cccc(c2)COC1.Cl [Batch HCl 2, 11-(2-pyrrolidin-1-yl-ethoxy)-14,19-dioxa-5,7,26-triaza-tetracyclo[19.3.1.1(2,6).1(8,12)]heptacosa-1(25),2(26),3,5,8,10,12(27),16,21,23-decaene hydrochloride]
water lost in the first phase of the TGA ([1]; TGA): 5.6%

SMILES: C1=CCOCc2cc(ccc2OCCN2CCCC2)Nc2nccc(n2)-c2cccc(c2)COC1.Cl [Batch HCl 3, 11-(2-pyrrolidin-1-yl-ethoxy)-14,19-dioxa-5,7,26-triaza-tetracyclo[19.3.1.1(2,6).1(8,12)]heptacosa-1(25),2(26),3,5,8,10,12(27),16,21,23-decaene hydrochloride]
total weight lost in the TGA ([1]; TGA): 3.4% | another loss ([1]; TGA, at 165° C.): 1.97% | water lost in the first phase of the TGA ([1]; TGA): 1.5%

SMILES: C1=CCOCc2cc(ccc2OCCN2CCCC2)Nc2nccc(n2)-c2cccc(c2)COC1.Cl [Batch HCl 1, 11-(2-pyrrolidin-1-yl-ethoxy)-14,19-dioxa-5,7,26-triaza-tetracyclo[19.3.1.1(2,6).1(8,12)]heptacosa-1(25),2(26),3,5,8,10,12(27),16,21,23-decaene hydrochloride]
two stage weight loss, total ([1]; TGA, up to 100° C.): 4.5% | mass regained on going to 40% RH ([5]; GVS, after dryness): 2% | adsorption of water in the initial adsorption cycle ([5]; GVS, at 90% RH): 5.5% | total gain of mass ([5]; GVS, whole experiment): 2% | water content after the gain ([5]; GVS, corresponds to a dihydrate): 6.5% | mass lost on going from 90% RH to dryness ([5]; GVS, hydrochloride): 5%

More lines, now with the values ahead:

change of X-ray diffraction pattern with temperature [2]: no change | changes in the crystalline pattern after storage ([3]; a week in the humidity chamber at 60° C. and 96% RH): no changes | Solid Form after maturation ([4]; 1,4-dioxane): Form A | Solid Form after maturation ([4]; 1-butanol): Form A | Solid Form after maturation ([4]; 1-pentanol): Form A | Solid Form after maturation ([4]; 1-propanol): Form A | Solid Form after maturation ([4]; 2-butanol): Form A | Solid Form after maturation ([4]; 2-methoxy ethanol): Form A | Solid Form after maturation ([4]; 3-methyl-1-butanol): Form A | solid forms identified after maturation, all cases ([4]; 27 different solvents): only one solid form | Solid Form after maturation ([4]; Acetonitrile): Form A | Solid Form after maturation ([4]; Cyclohexane): Form A | Solid Form after maturation ([4]; DMSO): Form A | Solid Form after maturation ([4]; Dicloromethane): Form A | Solid Form after maturation ([4]; Ethanol): Form A | Solid Form after maturation ([4]; Ethyl acetate): Form A | Solid Form after maturation ([4]; Heptane): Form A | Solid Form after maturation ([4]; IPA): Form A | Solid Form after maturation ([4]; Isobutyl acetate): Form A | Solid Form after maturation ([4]; Isopropyl acetate): Form A | Solid Form after maturation ([4]; Methyl isobutyl ketone): Form A | Solid Form after maturation ([4]; Methylethyl ketone): Form A | Solid Form after maturation ([4]; Nitromethane): Form A | Solid Form after maturation ([4]; Propyl acetate): Form A | Solid Form after maturation ([4]; TBME): Form A | Solid Form after maturation ([4]; Tetrahydrofuran): Form A | Solid Form after maturation ([4]; Toluene): Form A | Solid Form after maturation ([4]; Water): Form A | Solid Form after maturation ([4]; acetone): Form A | Solid Form after maturation ([4]; methanol): Form A | weight loss in the TGA ([1]; until the salt melts with decomposition at 200° C.): no weight loss | hygroscopicity ([5]; GVS): low hygroscopicity | weight taken up in water ([5]; GVS, between 0 and 90% RH): less than 0.6% | solid form / crystalline pattern by XRPD post GVS [5]: No changes
SMILES: C1=C/COCc2cc(ccc2OCCN2CCCC2)Nc2nccc(n2)-c2cccc(c2)COC/1 [maleate salt, 11-(2-pyrrolidin-1-yl-ethoxy)-14,19-dioxa-5,7,26-triaza-tetracyclo[19.3.1.1(2,6).1(8,12)]heptacosa-1(25),2(26),3,5,8,10,12(27),16,21,23-decaene]

solid form by XRPD after storage ([3]; 40° C./75% RH, 0 hrs): Group three. | solid form by XRPD after storage ([3]; 40° C./75% RH, 24 hrs): Group three. | solid form by XRPD after storage ([3]; 40° C./75% RH, 48 hrs): Group three. | solid form by XRPD after storage ([3]; 40° C./75% RH, 72 hrs): Group one. | solid form by XRPD after storage ([3]; 60° C./96% RH, 0 hrs): Group three. | solid form by XRPD after storage ([3]; 60° C./96% RH, 24 hrs): Group one. | weight loss in the TGA ([1]; until degradation at around 240° C.): very little weight loss | mass gained on going from 40% RH to 90% RH (water absorption) ([5]; GVS): 1.6% | mass lost on going from 90% RH to dryness ([5]; GVS, hydrochloride): 2.4% | solid form / crystalline pattern by XRPD post GVS ([5]; hydrochloride): unchanged
SMILES: C1=CCOCc2cc(ccc2OCCN2CCCC2)Nc2nccc(n2)-c2cccc(c2)COC1.Cl [Batch HCl 6, 11-(2-pyrrolidin-1-yl-ethoxy)-14,19-dioxa-5,7,26-triaza-tetracyclo[19.3.1.1(2,6).1(8,12)]heptacosa-1(25),2(26),3,5,8,10,12(27),16,21,23-decaene hydrochloride]

mass lost ([1]; TGA, between ambient and 108° C.): 6.5% | mass gained on going from 40% RH to 90% RH (water absorption) ([5]; GVS): 1.6% | mass lost on going from 90% RH to dryness ([5]; GVS, hydrochloride): 2.8% | solid form / crystalline pattern by XRPD post GVS ([5]; hydrochloride): unchanged
SMILES: C1=CCOCc2cc(ccc2OCCN2CCCC2)Nc2nccc(n2)-c2cccc(c2)COC1.Cl [Batch HCl 4, 11-(2-pyrrolidin-1-yl-ethoxy)-14,19-dioxa-5,7,26-triaza-tetracyclo[19.3.1.1(2,6).1(8,12)]heptacosa-1(25),2(26),3,5,8,10,12(27),16,21,23-decaene hydrochloride]
